Measurements as given in patent US20210322376A1, “METHODS FOR REDUCING THE RISK OF DIABETES IN PATIENTS BEING TREATED FOR HIGH CHOLESTEROL-RELATED ILLNESSES” (Esperion Therapeutics, Inc., priority 2018, published 2021).

Tests used:
[1] = Example 1: bempedoic acid vs placebo, patients with a history of diabetes on MTD statin, 52 weeks (HbA1c, fasting glucose); type: in vivo, human; conditions: background MTD statin (50% high intensity), FIG. 2 and FIG. 3
Text: (§1) Patients with diabetes were identified primarily through medical history and/or baseline lab results. No entry restrictions were placed on these patients with the exception of having a HbA1c <10% during screening. The use of background concomitant medications related to diabetes treatment was captured at the study outset. Changes in all concomitant medications were tracked during the treatment phase. No restrictions were placed on changes in diabetes medications (stopping, starting, or changing dose) during the trial.
2230 total patients were receiving background MTD statin (50% high intensity) for 52 weeks. […] Patients were treated with bempedoic acid or placebo. The baseline HbA1c levels for patients receiving bempedoic acid was 6.85%, and the baseline HbA1c levels for patients receiving placebo was 6.89%. The baseline fasting glucose levels for patients receiving bempedoic acid was 131.4 mg/dl. The baseline fasting glucose levels for patients receiving placebo was 130.6 mg/dl. Changes in HbA1c levels were measured at week 12 and week 52 and changes in fasting glucose levels were measured at weeks 4, 8, 12, 24, and 36 and 52.

[2] = Example 2: bempedoic acid vs placebo, statin-intolerant patients with a history of diabetes, 24 weeks; type: in vivo, human; conditions: statin intolerant (8% very low dose statin), FIG. 4 and FIG. 5
Text: as §1
345 total patients with statin intolerance (8% very low dose statin) were treated for 24 weeks. […] Patients were treated with bempedoic acid or placebo. The baseline HbA1c levels for patients receiving bempedoic acid was 6.91%, and the baseline HbA1c levels for patients receiving placebo was 7.12%. The baseline fasting glucose levels for patients receiving bempedoic acid was 130.7 mg/dl. The baseline fasting glucose levels for patients receiving placebo was 139.8 mg/dl. Changes in HbA1c levels were measured at week 12 and week 24 and changes in fasting glucose levels were measured at weeks 4, 12, and 24.

[3] = Example 3: bempedoic acid vs placebo, statin-intolerant patients on background ezetimibe, 12 weeks; type: in vivo, human; conditions: statin intolerant (31% low/very low dose statin), FIG. 6 and FIG. 7
Text: as §1
269 total patients with statin intolerance (31% low/very dose statin) were treated for 12 weeks; all patients on background ezetimibe therapy. […] Patients were treated with bempedoic acid or placebo. The baseline HbA1c levels for patients receiving bempedoic acid was 6.66%, and the baseline HbA1c levels for patients receiving placebo was 6.76%. The baseline fasting glucose levels for patients receiving bempedoic acid was 133.7 mg/dl. The baseline fasting glucose levels for patients receiving placebo was 133.4 mg/dl. Changes in HbA1c levels were measured at week 12, and changes in fasting glucose levels were measured at weeks 4, 8, and 12.

[4] = Cumulative data of Examples 1-4: new onset or worsening of diabetes; type: in vivo, human; conditions: patients taking statins plus bempedoic acid; statins plus placebo 5.6%
[5] = Pharmacokinetics of ETC-1002; conditions: human, in vivo
Method: In some aspects, the methods herein provide for treating cardiovascular disease and/or reducing the risk of cardiovascular disease in a subject comprising administering an amount of a composition comprising ETC-1002 which is rapidly absorbed having a Tmax at less than about 4 hours.

[6] = Thorough QT/QTc (TQT) study of ETC-1002; type: in vivo
[7] = Muscle-related adverse events with add-on ETC-1002 therapy to statin therapy; type: in vivo
Text: In some aspects, the subject experiences an adverse event when on one or more statins at the lowest FDA approved dose, said adverse events being selected form the group consisting of muscle-related pain, aches, weakness, and cramping.

## CC(C)(CCCCCC(O)CCCCCC(C)(C)C(=O)O)C(=O)O [ETC-1002, 8-hydroxy-2,2,14,14 tetramethylpentadecanedioic acid]
[1]
  incidence of diabetes-related phenotypes, worsening of diabetes, new onset of diabetes: reduces the incidence of diabetes-related phenotypes, worsening of diabetes, and new onset of diabetes relative to placebo
[2]
  incidence of diabetes-related phenotypes, worsening of diabetes, new onset of diabetes: reduces incidence of diabetes-related phenotypes, worsening of diabetes, and new onset of diabetes relative to placebo
[3]
  incidence of diabetes-related phenotypes, worsening of diabetes, new onset of diabetes: reduces the incidence of diabetes-related phenotypes, worsening of diabetes, and new onset of diabetes relative to placebo
[4]
  frequency of new onset or worsening of diabetes and diabetes-related symptoms: 4%
[5]; rapidly absorbed
  Tmax: < 4 h
[5]; systemic exposure, AUCtau,ss
  half-life: 15 to 27 h
[6]; TQT study
  QTc or QT/QTc prolongation: does not prolong QTc or QT/QTc
[6]; add-on ETC-1002 therapy
  heart rate and PR and QRS intervals: does not affect subject heart rate and PR and QRS intervals
[7]
  muscle-related adverse events that began or increased during statin therapy: significantly lowered or even resolved
